Experimental data as given in patent US20230312646A1, “ANTIBACTERIAL PEPTIDES” (priority 2020, published 2023).
Like-named read-outs stand apart in the source and are kept apart here. Numbered stars: 1 amine (or outer) side, 2 acyl side, 3 side chain; on linkers, the order of the positions; unused ones are H or OH. Square brackets hold non-standard residues; d marks the D form. Peptide text beside a SMILES is read from it. * marks the point of attachment. Phe(3,4-Cl2) = N[C@@H](Cc1ccc(Cl)c(Cl)c1)C(=O)O; X5 = O=C([C@@H]1CC(O)CN1[*:1])[*:2]; NMeCha = CN[C@@H](CC1CCCCC1)C(=O)O; NH(4-MeO-phenyl) = COc1ccc(N*)cc1; NMeR = CN[C@@H](CCCNC(=N)N)C(=O)O; Cha = N[C@@H](CC1CCCCC1)C(=O)O; NMeD = CN[C@@H](CC(=O)O)C(=O)O; NMeL = CN[C@@H](CC(C)C)C(=O)O; Phe(ol) = N[C@H](CO)Cc1ccccc1; Pip = O=C(O)[C@@H]1CCCCN1; X6 = O=C(/C=C/c1ccccc1)*; CO = O=C([*:1])[*:2]

How the values were obtained:
[1] = target: T1, clamps from Pseudomonas aeruginosa (^PaSC) (Pseudomonas aeruginosa, UniProt Q9I7C4); assay: ITC of peptides with P. aeruginosa clamp; format: binding
T1 construct: made in house
T1 sequence (Q9I7C4 whole entry): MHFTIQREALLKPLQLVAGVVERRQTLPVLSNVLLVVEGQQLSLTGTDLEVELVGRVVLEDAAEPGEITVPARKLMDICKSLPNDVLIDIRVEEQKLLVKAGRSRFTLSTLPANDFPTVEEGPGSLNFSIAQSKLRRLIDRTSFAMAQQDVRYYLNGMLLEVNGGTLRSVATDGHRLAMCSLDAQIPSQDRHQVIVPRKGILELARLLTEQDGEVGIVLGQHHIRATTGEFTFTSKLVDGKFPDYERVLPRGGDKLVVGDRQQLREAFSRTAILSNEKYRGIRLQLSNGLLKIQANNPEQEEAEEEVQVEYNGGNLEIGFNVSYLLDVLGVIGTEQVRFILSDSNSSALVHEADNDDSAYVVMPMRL
Method: (§1) ITC experiments were performed using an iTC200 or a PEAQ-ITC instrument (Microcal Malvern Panalytical). Peptides (300 or 600 µM) were titrated at 25° C. by sequential injections (usually 2 µl each) into an SC solution (30 or 60 µM). Data were corrected for heat of injection by subtracting the signal of the titration of peptides into proteiN-free buffer solution (Hepes 10 mM pH 7.4, NaCl 0.15 M, EDTA 3 mM). Each titration was performed at least twice. Analyses of experimental data were performed following a classical treatment with the AFFINImeter software (https://www.affinimeter.com; S4S, Santiago de Compostela, Spain). In addition, kinetic information was obtained in some cases with kinITC as implemented in the software AFFINImeter.
Protein quality was assessed by DLS. The purification of clamps from other bacteria used the same procedure.
The bacterial sliding clamps present a highly conserved binding site among bacterial species. […] All these species belong to the ESKAPE group and are in the first priority bacteria list established by the World Health Organization for which new antibiotics are urgently needed.

[2] = target: T2, Escherichia coli SC (^EcSC) (Escherichia coli, UniProt P0A988); assay: biochemical; format: binding
T2 construct: His tag (inferred from the pET15b vector and Ni-NTA purification) (N); made in house; host or cells: E. coli
T2 sequence (P0A988 whole entry): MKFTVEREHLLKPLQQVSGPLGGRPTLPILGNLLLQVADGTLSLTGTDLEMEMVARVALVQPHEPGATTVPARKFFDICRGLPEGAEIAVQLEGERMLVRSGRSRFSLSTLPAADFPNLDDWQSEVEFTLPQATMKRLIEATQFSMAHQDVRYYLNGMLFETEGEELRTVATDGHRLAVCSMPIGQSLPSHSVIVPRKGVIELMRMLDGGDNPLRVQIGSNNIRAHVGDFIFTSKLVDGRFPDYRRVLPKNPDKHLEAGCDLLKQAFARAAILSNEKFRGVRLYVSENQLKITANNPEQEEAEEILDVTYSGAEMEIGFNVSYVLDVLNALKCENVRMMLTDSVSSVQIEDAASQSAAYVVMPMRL
Method: The procedure has been described previously (Wolff, P.; Oliéric, V.; Briand, J. P.; Chaloin, O.; Dejaegere, A.; Dumas, P.; Ennifar, E.; Guichard, G.; Wagner, J.; Burnouf, D. Y., Structure-Based Design of Short Peptide Ligands Binding onto the E. coli Processivity Ring. J. Med. Chem. 2011, 54 (13), 4627-4637). Briefly, E.coli cells were transformed with plasmids pET15b containing the dnaN gene from E. coli and were grown in LB at 37° C. to OD 0.5, then induced by IPTG (0.1 mM) at 28° C. overnight. dnaN proteins fractions were first enriched on a Ni-NTA column, eluted with a histidine step (300 mM) and further purified on a Source Q column in buffer containing 20 mM Tris HCI pH 7.5, 0.5 mM EDTA and 10% (v/v) glycerol, using a gradient from 0 to 0.5 M NaCl. After a final ultracentrifugation (45 K, 1 h, 20° C.), soluble proteins were concentrated on a Centricon 30 K (Millipore) in the same buffer and stored at 4° C. in 2 M ammonium sulfate. Buffer exchange was performed on Centrikon 10 K at 4° C. before use and protein quality was assessed by DLS.
as §1
All newly synthesized peptides were tested for their interaction with ^EcSC by ITC at 25° C. As a general rule, all thermodynamic profiles reveal an exothermic interaction, and a non-favorable entropic component. The resulting negative Gibb’s free energies characterize a spontaneous interaction. The analysis of raw data by the Affinimeter® software also gave access to kinetics rate constant of the interaction.

[3] = Kd (nM), ITC at 298.15 K (25° C.)

Structure (SMILES): CC(=O)N(C)[C@@H](CCCNC(=N)N)C(=O)N[C@@H](CCC(N)=O)C(=O)N[C@@H](CC1CCCCC1)C(=O)N(C)[C@@H](CC(=O)O)C(=O)N[C@@H](CC(C)C)C(=O)N[C@@H](Cc1ccc(Cl)c(Cl)c1)C(=O)O [P37] (Ac-[NMeR]Q[Cha][NMeD]L[Phe(3,4-Cl2)]-OH)
- Kd ([1]; affinities (Kd in nM), P. aeruginosa, ITC at 25° C., means of three independant experiments, standard deviations in brackets): 169 nM
- Kd ([1]; affinity for these clamps (^PaSC and ^AbSC), range over ^PaSC and ^AbSC): 120 to 170 nM
- Kd [2, 3]: 92 nM
- Kd ([2]; affinities (Kd in nM), E.coli, ITC at 25° C., means of three independant experiments, standard deviations in brackets): 74 nM

Structure (SMILES): CC(C)C[C@H](NC(=O)[C@@H]1CCCN1C(=O)[C@H](CC(C)C)NC(=O)[C@H](CC(=O)O)NC(=O)[C@H](CC1CCCCC1)NC(=O)[C@H](CCC(N)=O)NC(=O)/C=C/c1ccccc1)C(=O)O [P43] (X6-Q[Cha]DLPL-OH)
- Kd [2, 3]: 132 nM
- kon ([2]; read-out: kon (M^-1 s^-1)): 60000 M⁻¹ s⁻¹

Structure (SMILES): CC(=O)N[C@@H](CCC(N)=O)C(=O)N[C@@H](CC1CCCCC1)C(=O)N[C@@H](CC(=O)O)C(=O)N[C@@H](CC(C)C)C(=O)N1CC(O)C[C@H]1C(=O)N[C@@H](CC(C)C)C(=O)O (stereo partly drawn) [P33] (Ac-Q[Cha]DL[X5]L-OH)
- ΔG (kcal/mol) ([2]; ITC at 298.15 K (25° C.)): -8.8 (± 0.2) kcal/mol
- Kd [2, 3]: 369 nM
- kon ([2]; read-out: kon (M^-1.s^-1)): 44000 M⁻¹ s⁻¹

Structure (SMILES): CC(=O)N[C@@H](CCC(N)=O)C(=O)N(C)[C@@H](CC1CCCCC1)C(=O)N[C@@H](CC(=O)O)C(=O)N[C@@H](CC(C)C)C(=O)N[C@@H](Cc1ccccc1)C(=O)O [P3] (Ac-Q[NMeCha]DLF-OH)
- ΔG (kcal/mol) ([2]; ITC at 298.15 K (25° C.)): -6.0 (± 0.1) kcal/mol
- Kd [2, 3]: > 1000 nM

Structure (SMILES): CC(=O)N[C@@H](CCC(N)=O)C(=O)N[C@@H](CC1CCCCC1)C(=O)N[C@@H](CC(=O)O)C(=O)N[C@@H](CC(C)C)C(=O)N1CCCC[C@H]1C(=O)N[C@@H](CC(C)C)C(=O)O [P34] (Ac-Q[Cha]DL[Pip]L-OH)
- ΔG (kcal/mol) ([2]; ITC at 298.15 K (25° C.)): -9.0 (± 0.1) kcal/mol
- Kd [2, 3]: 243 nM
- kon ([2]; read-out: kon (M^-1.s^-1)): 43000 M⁻¹ s⁻¹

Structure (SMILES): CC(=O)N[C@@H](CCC(N)=O)C(=O)N[C@@H](CC1CCCCC1)C(=O)N[C@@H](CC(=O)O)C(=O)N[C@@H](CC(C)C)C(=O)N[C@H](CO)Cc1ccccc1 [P24] (Ac-Q[Cha]DL[Phe(ol)])
- ΔG (kcal/mol) ([2]; ITC at 298.15 K (25° C.)): -8.4 (± 0.1) kcal/mol
- Kd [2, 3]: 751 nM
- kon ([2]; read-out: kon (M^-1.s^-1)): 26000 M⁻¹ s⁻¹

Structure (SMILES): CC(=O)N[C@@H](CCC(N)=O)C(=O)N[C@@H](CC1CCCCC1)C(=O)N[C@@H](CC(=O)O)C(=O)N(C)[C@@H](CC(C)C)C(=O)N[C@@H](Cc1ccccc1)C(=O)O [P6] (Ac-Q[Cha]D[NMeL]F-OH)
- ΔG (kcal/mol) ([2]; ITC at 298.15 K (25° C.)): -5.2 (± 0.2) kcal/mol
- Kd [2, 3]: > 1000 nM

Structure (SMILES): COc1ccc(NC(=O)N[C@@H](CCC(N)=O)C(=O)N[C@@H](CC2CCCCC2)C(=O)N(C)[C@@H](CC(=O)O)C(=O)N[C@@H](CC(C)C)C(=O)N[C@@H](Cc2ccc(Cl)c(Cl)c2)C(=O)O)cc1 [P39] ({NH(4-MeO-phenyl)-CO}-Q[Cha][NMeD]L[Phe(3,4-Cl2)]-OH)
- ΔG (kcal mol^-1) ([2]; ITC at 25° C.): -9.0 (± 0.01) kcal mol^-1
- Kd [2, 3]: 266 nM
- kon ([2]; read-out: kon (M^-1 s^-1)): 42000 M⁻¹ s⁻¹

Structure (SMILES): CC(=O)N[C@@H](CCCNC(=N)N)C(=O)N[C@@H](CCC(N)=O)C(=O)N[C@@H](CC1CCCCC1)C(=O)N[C@@H](CC(=O)O)C(=O)N[C@@H](CC(C)C)C(=O)N[C@@H](Cc1ccccc1)C(=O)O [P12] (Ac-RQ[Cha]DLF-OH)
- ΔG (kcal/mol) ([2]; ITC at 298.15 K (25° C.)): -8.60 (± 0.08) kcal/mol
- Kd [2, 3]: 498 nM
- koff, fold higher than for peptide 1 (P1) ([2]; compared to P1): 2.5 fold
- kon ([2]; read-out: kon (M^-1.s^-1)): 37000 M⁻¹ s⁻¹

Structure (SMILES): CC(=O)N[C@@H](CCC(N)=O)C(=O)N[C@@H](CC1CCCCC1)C(=O)N(C)[C@@H](CC(=O)O)C(=O)N[C@@H](CC(C)C)C(=O)N1CCC[C@H]1C(=O)N[C@@H](Cc1ccccc1)C(=O)O [P45] (Ac-Q[Cha][NMeD]LPF-OH)
- ΔG (kcal mol^-1) ([2]; ITC at 25° C.): -9.7 (± 0.2) kcal mol^-1
- Kd [2, 3]: 81 nM
- kon ([2]; read-out: kon (M^-1 s^-1)): 60000 M⁻¹ s⁻¹
